Data: patent US7989433B2, “Substituted thieno[3,2-D]pyrimidines as melanin concentrating hormone receptor-1 antagonists” (Bristol-Myers Squibb Company, priority 2008, dated 2011)
pKi: −log10 of the molar value.

Experiments:
[1] = One month rat study, formation of biliary lesions; type: in vivo; conditions: for Formation of Biliary Lesions: rats; for biliary lesion formation in rats: doses up to 300 mg/kg for a month
Excerpt: Further investigation established that the toxic agent was a metabolite arising from in vivo oxidative hydroxylation of the alkyl chain containing the tertiary carbinol moiety of compound f.

[2] = Rat PK model / eight hour PK study after oral prodrug ester; type: in vivo; conditions: Sprague-Dawley; for AUC: blood, 10 mg/kg oral prodrug ester, 8 hr AUC of bio-active substance, no unit in table (b280 micromole*hr); for Kp: brain and plasma, 10 mg/kg oral dose of amino acid ester prodrug (valine or glycine), bio-active substance
Method: The relative ability of the prodrug to enhance exposure (bioavailability) was assessed in an eight hour PK study using cannulated SPRAGUE DAWLEY® (CD, Charles River Breeding Laboratory) rats. The compounds (parent and pro-drug esters) were administered p.o. at 2.0 ml/kg as a suspension in 0.5% methyl cellulose, 0.1% Tween 80 in water at 10 mg/kg p.o. Blood samples were taken at 1, 2, 4 and 8 hr. After determination of parent concentration, an AUC was calculated for the eight hour study.

[3] = system: cytochrome P450 enzymes (rat microsomal); experiment: Metabolic stability versus rat microsomal oxidative degradation; conditions: rat microsomal oxidative degradation mediated by cytochrome P450
MCHR [4] = biological target: T1, MCHR (Rattus norvegicus, UniProt P97639); experiment: Assessment of in vivo MCHR activity in young growing rats (four day efficacy model); conditions: for Efficacy at 30 mg/kg (weight loss in young growing rats): 30 mg/kg daily p.o. of ester prodrug, four day model; for Weight Reduction versus Vehicle: young growing rats
T1 construct: from tissue; host or cells: whole animal: male Sprague Dawley / Charles River rats
T1 sequence (P97639 whole entry): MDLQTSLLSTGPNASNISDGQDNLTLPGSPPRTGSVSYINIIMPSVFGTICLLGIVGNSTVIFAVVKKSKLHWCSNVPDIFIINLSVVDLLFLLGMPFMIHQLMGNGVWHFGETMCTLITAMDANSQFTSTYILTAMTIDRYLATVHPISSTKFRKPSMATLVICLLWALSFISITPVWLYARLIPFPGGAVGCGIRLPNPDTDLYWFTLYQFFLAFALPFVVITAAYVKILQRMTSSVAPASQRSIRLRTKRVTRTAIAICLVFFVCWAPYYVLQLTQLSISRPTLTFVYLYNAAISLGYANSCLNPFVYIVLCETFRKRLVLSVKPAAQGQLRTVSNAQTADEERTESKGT
Method: Male SPRAGUE DAWLEY® (CD, Charles River Breeding Laboratory) rats weighing approximately 240 grams were place in individual plastic cages with ALPHADRI® bedding. The room was maintained at 72° F. and 50% humidity, and a 12/12 light dark cycle with lights out at 1600 hours. The rats were conditioned for 5 days prior to the start of the study to having a choice of foods. A normal chow (HARLAN TEKLAD®, 2018) that contains 18% protein, 5% fat and 73% carbohydrate and a high fat high sugar diet (Research Diets (D2327)) that contains 20% protein, 40% fat and 40% carbohydrate where the carbohydrate is entirely sucrose and the fat is soybean and coconut oil. […] Body weight and consumption of both kinds of food as well as water intake were measured daily. Water was available ad lib throughout the study. Food consumption is presented as daily caloric consumption which is the sum of grams of chow multiplied by the Kcal per gram (3.5) plus grams of high fat high sugar multiplied by Kcal per gram (4.59).
Baseline body weight was measured prior to drug treatment on day 0 of the study. Baseline food consumption was the average of the 3 days prior to the first drug treatment. […] All data were evaluated using ANOVA and Fishers PLSD statistics.

[5] = biological target: T2, mutated (E4Q, A5T) hMCHR1 receptor (Homo sapiens, UniProt Q99705, A5T/E4Q); experiment: Radioligand binding assay for assessment of MCHR1 activity; conditions: competition vs [Phe13,[125I]Tyr19]-MCH, HEK-293 membranes
T2 construct: expressed in transfected cells; host or cells: HEK-293 (stably transfected), membrane preparation
T2 sequence (Q99705 whole entry E4Q/A5T): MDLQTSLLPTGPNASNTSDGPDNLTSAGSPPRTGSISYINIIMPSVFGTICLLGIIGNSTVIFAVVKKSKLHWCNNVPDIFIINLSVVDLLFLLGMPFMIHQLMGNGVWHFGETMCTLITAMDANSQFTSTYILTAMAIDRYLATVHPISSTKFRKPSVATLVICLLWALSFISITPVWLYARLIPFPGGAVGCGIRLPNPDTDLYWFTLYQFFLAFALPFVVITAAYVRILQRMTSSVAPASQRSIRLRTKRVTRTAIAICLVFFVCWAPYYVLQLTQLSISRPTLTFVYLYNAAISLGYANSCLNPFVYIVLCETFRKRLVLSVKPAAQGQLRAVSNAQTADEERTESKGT
Excerpt: Compounds of the present invention, namely Compounds IA and IB of the invention, and Compounds a to f (prepared as described in U.S. Patent Publication No. 2007/0093509 A1 published Apr. 26, 2007), were initially characterized in an in vitro binding assay to determine their Ki or ability to antagonize binding of a peptide agonist to the human melanin concentrating hormone receptor (MCHR1).
Radioligand Binding Assay for Assessment of MCHR1 Activity
Membranes from stably transfected HEK-293 cells expressing a mutated (E4Q, A5T) hMCHR1 receptor were prepared by dounce homogenization and differential centrifugation. Binding experiments were carried out with 0.5-1.0 ug of membrane protein incubated in a total of 0.2 ml in 25 mM HEPES (pH 7.4) with 10 mM MgCl2, 2 mM EGTA, and 0.1% BSA (Binding Buffer) for 90 min. For competition binding assays, reactions were carried out in the presence of with 0.06-0.1 nM [Phe^13, [^125I]Tyr^19]-MCH and increasing concentrations of unlabeled test molecules. Reactions were terminated by rapid vacuum filtration over 96 well-GFC Unifilter plates pre-coated with 0.075 ml binding buffer containing 1% BSA, and washed 3 times with 0.4 ml of Phospho-buffered Saline (pH 7.4) containing 0.01% TX-100, Filters were dried, 0.05 ml MicroScint 20 was added to each well and radioactivity was subsequently quantified by scintillation counting on a TOPCOUNT® microplate scintillation counter (Packard). Inhibitory constants were determined by nonlinear least squares analysis using a four parameter logistic equation.

[6] = Full PK study in dog (half-life); conditions: in vivo
hepatocytes [7] = experiment: Hepatocyte clearance, human; type: in vitro ADME
Excerpt: As a consequence the projected human half-life for these two compounds was predicted to be 20 to 40 hr.

MCHR [8] = biological target: T1, MCHR; experiment: Assessment of MCHR in vivo activity in mature obese rats; conditions: dosed as prodrug
Method: Male rats, obtained from Charles River Laboratories weighing 250-300 g, were singly housed in plastic cages on a 12 hour light, 12 hour dark cycle with lights out at 1 pm. The animal room was maintained at 72 degrees F. and 50% humidity. The rats were made obese by giving them simultaneous access to two different diets, HARLAN TEKLAD® rat chow (standard chow) and Research Diets D12327 (a high fat, high carbohydrate, highly palatable diet). The Research Diets chow is comprised of 40% vegetable fat, 40% carbohydrate (sucrose) and 20% protein. The Harlan diet is comprised of 5% fat (soybean oil), 67% carbohydrate (starch) and 22% protein. The normal Harlan rat diet used contains 3.4 kcal/gram of diet, and Research Diet #12327 contains 4.59 kcal/gram. The rats were on the choice diet regime for 10 weeks in order to induce obesity. Once started on the choice diet regime the rats are maintained on it for the duration of the study. Baseline feeding and body weight were collected and used to sort animals into treatment groups. Mean rat weight at the start of the choice diet was 250 grams. The mean weight of the rats at the start of chronic dosing was 661.7±6.3 (mean±sem) grams.
Rats were dosed orally one hour before the start of the dark cycle. Body weight and food consumption were measured daily at the time of dosing. Food consumption was converted to Kcal consumed. Total Kcal consumed was determined by adding the Kcal consumed for each diet and this was determined by multiplying grams of each diet consumed times the Kcal/gram. […]

hepatocytes [9] = experiment: Hepatocyte clearance, dog; type: in vitro ADME
[10] = 3 mg/kg p.o. daily day 0-4, dosed as prodrug
[11] = 10 mg/kg p.o. daily day 0-4, dosed as prodrug
[12] = 30 mg/kg p.o. daily day 0-4, dosed as prodrug

Compound	Formation of Biliary Lesions [1]	AUC [2] [µM·h]	Kp [2]	Rat Microsomal Stability [3] [%]	Efficacy at 30 mg/kg (weight loss in young growing rats) (MCHR [4]) [%]	pKi [5]	half-life ([6]; Dog Half-life (hr)) [h]	hepatocyte clearance (hepatocytes [7])	other results
COc1cc(-n2cnc3cc(-c4ccc(Cl)cc4)sc3c2=O)ccc1OC[C@H](O)C1CC1 [IA, (R)-6-(4-Chlorophenyl)-3-(4-(2-cyclopropyl-2-hydroxyethoxy)-3-methoxyphenyl)-thieno[3,2-d]pyrimidin-4(3H)-one]	No	24.5	0.9	92	6.4	8.00	< 20	approximated that of dog	biliary lesion formation in rats [1]: neither compound IA nor compound IB induced biliary lesion formation
COc1cc(-n2cnc3cc(-c4ccc(Cl)cc4)sc3c2=O)ccc1OCC1(O)CC(F)(F)C1 [IB, 6-(4-Chlorophenyl)-3-(4-((3,3-difluoro-1-hydroxycyclobutyl)methoxy)-3-methoxyphenyl)thieno[3,2-d]pyrimidin-4(3H)-one]	No	38	2.5	95	7.9	7.74	< 20	approximated that of dog	half-life [6]: 16 h; Weight Reduction versus Vehicle (MCHR [8]; 0.03 mg/kg oral chronic dosing): 1.7%; Weight Reduction versus Vehicle (MCHR [8]; 0.1 mg/kg oral chronic dosing): 3.2%; Weight Reduction versus Vehicle (MCHR [8]; 0.3 mg/kg oral chronic dosing): 5.0%; Weight Reduction versus Vehicle (MCHR [8]; 1 mg/kg oral chronic dosing): 6.6%; Weight Reduction versus Vehicle (MCHR [8]; 3 mg/kg oral chronic dosing): 7.8%; biliary lesion formation in rats [1]: neither compound IA nor compound IB induced biliary lesion formation; Weight Reduction versus Vehicle (MCHR [4]; 1 mg/kg p.o. daily day 0-4, dosed as prodrug): 2.9%; Weight Reduction versus Vehicle (MCHR [4]; [10]): 4.5%; Weight Reduction versus Vehicle (MCHR [4]; [11]): 6.4%; Weight Reduction versus Vehicle (MCHR [4]; [12]): 7.9%
(R)-6-(4-Chlorophenyl)-3-(4-(2-cyclopropyl -2-hydroxyethoxy)-3-methoxyphenyl)-thieno[3,2-d]pyrimidin-4(3H)-one [IA]	–	–	–	–	–	–	–	–	Weight Reduction versus Vehicle (MCHR [8]; 0.3 mg/kg oral chronic dosing): 2.09%; Weight Reduction versus Vehicle (MCHR [8]; 1 mg/kg oral chronic dosing): 3.90%; Weight Reduction versus Vehicle (MCHR [8]; 3 mg/kg oral chronic dosing): 3.57%; Weight Reduction versus Vehicle (MCHR [8]; 10 mg/kg oral chronic dosing): 8.42%; Weight Reduction versus Vehicle (MCHR [8]; 30 mg/kg oral chronic dosing): 10.16%; Weight Reduction versus Vehicle (MCHR [4]; [10]): 2.6%; Weight Reduction versus Vehicle (MCHR [4]; [11]): 3.5%; Weight Reduction versus Vehicle (MCHR [4]; [12]): 6.4%
COc1cc(-n2cnc3cc(-c4ccc(Cl)cc4)sc3c2=O)ccc1OC[C@H](OC(=O)CN)C1CC1.Cl [Example 5, (R)-2-(4-(6-(4-Chlorophenyl)-4-oxothieno[3,2-d]pyrimidin-3(4H)-yl)-2-methoxy-phenoxy)-1-cyclopropylethyl 2-aminoacetate, hydrochloride salt]	–	–	–	–	–	–	–	–	melting point: 218 to 220 °C
COc1cc(-n2cnc3cc(-c4ccc(Cl)cc4)sc3c2=O)ccc1OCC1(O)CCC1 [a]	–	–	–	20	–	–	–	–	–
COc1cc(-n2cnc3cc(-c4ccc(Cl)cc4)sc3c2=O)ccc1OCC(C)(C)O [f]	Yes	45	2	98	8.2	7.92	> 200	very slow	biliary lesions in rats ([1]; 30 mg/kg for a month): developed obstructive hepatic biliary lesions; hepatocyte clearance (hepatocytes [9]): very slow

Second part, led by results:

Formation of Biliary Lesions [1]	AUC [2] [µM·h]	Kp [2]	Rat Microsomal Stability [3] [%]	Efficacy at 30 mg/kg (weight loss in young growing rats) (MCHR [4]) [%]	pKi [5]	Compound	half-life ([6]; Dog Half-life (hr)) [h]	hepatocyte clearance (hepatocytes [7])	other results
No	20	1.1	100	3.2	7.96	COc1cc(-n2cnc3cc(-c4ccc(Cl)cc4)sc3c2=O)ccc1OCC(O)CC(F)(F)F (stereo not drawn) [d]	–	–	–
Yes	–	–	40	0	–	COc1cc(-n2cnc3cc(-c4ccc(Cl)cc4)sc3c2=O)ccc1OCC1(O)COC1 [b]	–	–	–
No	14.5	3.2	60	4.1	7.92	CCC(O)COc1ccc(-n2cnc3cc(-c4ccc(Cl)cc4)sc3c2=O)cc1OC (stereo not drawn) [c]	–	–	–
No	46	0.09	100	4.5	8.10	CCS(=O)(=O)CC(O)COc1ccc(-n2cnc3cc(-c4ccc(Cl)cc4)sc3c2=O)cc1OC (stereo not drawn) [e]	–	–	–
